A short description of series [1]: physchem. As to conditions: for log k′2 (capacity factor extrapolated to 0% methanol): Average of at least three determinations on different LC-ABZ columns, 20 mM MOPS pH 7.4/methanol with octanol; for Residual: logPoct minus ElogPoct. How it is done: The mobile phase consisted, in all cases, of 20 mM MOPS buffer at pH 7.4, and methanol in varying proportions from 70 to 15% v/v. […] The capacity factors data (k′=(tR−t0)/t0) obtained at various amounts of methanol were then extrapolated to 0% methanol and reported as log k′w, using a linear procedure. […] Injections of pure methanol were used to determine t0, i.e. the dead time, while tR has the usual meaning of the retention time for the analyte.
All the chromatographic runs were performed on a HP-1100 HPLC ChemStation at the ambient temperature. The columns used were Supelcosil LC-ABZ, 5μm, 4.6×50 mm. […] Columns having different silica bond lots were tested to ensure reproducibility. Samples were dissolved in 1:1 methanol/water at a concentration of 10-30 μg/mL. The flow rate was 0.5, 1 or 2 mL/min, depending on the lipophilicity range. Three lipophilicity ranges were established using, in all cases, three points for the extrapolation to k′w, as described in the table below.
The samples were placed in the appropriate range by estimating their lipophilicity via computed values, or by prior experience with a given class. In each case the entire group of samples was run before the column is equilibrated to the next condition, in an automated fashion, and the initial estimation need not be very accurate. The data analysis was automated via in-house software yielding the ElogPoct values, directly from the chromatographic data files.

The conditions of series [2]: Shake-flask data from literature references; cited from earlier work.
Series [3] is described as follows: Shake-flask octanol/buffer partition coefficient (logPoct). It is filed as physicochemical. Conditions: Shake-flask data, this work (in-house, octanol/MOPS buffer, overnight shaking). The source says:
The shake-flask logPoct data were taken from the literature or determined in-house, except when data were not available or could not be determined experimentally due to the high lipophilicity of the compound. In such cases a computed value was used. The shake-vial experimental measurements performed in-house were all conducted at least in duplicate, in amber glass vials and, in some cases, with varying ratios of octanol and MOPS buffer, mutually pre-saturated prior to the experiment. Overnight shaking was used. HPLC analysis at different wavelengths, after centrifugation and separation of the phases, was used for the quantitative analysis, using both phases.

Setting [4] is: Data from Equation 3 (from log k′w).

The source of these data is patent publication US6548307B2, “Determination of logP coefficients via a RP-HPLC column” (Pfizer Inc., priority 2000, dated 2003).

Read-outs that look alike come from different tables or passages of the source.

In the case of `Oc1cccc(Cl)c1` [3-Clorophenol], in series [1], the “log k′2 (capacity factor extrapolated to 0% methanol)” value is reported as 2.49 and the Residual is −0.40.

For `Brc1cnc2ccccc2c1` [3-Bromoquinoline], in series [1], the chromatographic logP turned out to be 2.95, the “log k′2 (capacity factor extrapolated to 0% methanol)” value is recorded as 2.54 and the Residual stood at 0.08. In addition, the logPoct in series [2] is on record as 3.03.

For `c1ccc2ccccc2c1` [Naphthalene], in series [1], the chromatographic logP worked out at 3.53, the “log k′2 (capacity factor extrapolated to 0% methanol)” value is 3.06 and the Residual is listed as −0.16.

Turning to `CC(=O)c1ccccc1` [Acetophenone], in series [1], the chromatographic logP came to 1.59, the “log k′2 (capacity factor extrapolated to 0% methanol)” value is recorded as 1.31 and the Residual is recorded as −0.01.

Consider `CC/C(=C(/CC)c1ccc(O)cc1)c1ccc(O)cc1` [Diethylstilbestrol], for which, in series [1], the chromatographic logP is 4.75, the “log k′2 (capacity factor extrapolated to 0% methanol)” value is 4.16 and the Residual was determined as 0.32. The logPoct in series [2] is 5.07.

In turn, `C[C@]12CC[C@@H]3c4ccc(O)cc4CC[C@H]3[C@@H]1CC[C@@H]2O` [Estradiol] gave a chromatographic logP in series [1] of 3.84.

With `C[C@]12CC[C@H]3[C@@H](CCC4=CC(=O)CC[C@@]43C)[C@@H]1CC[C@@H]2O` [Testosterone], in series [1], the “log k′2 (capacity factor extrapolated to 0% methanol)” value was 2.74 and the Residual stood at 0.12. Also, in series [1] (setting [4]), the ElogPoct is given as 3.17. Further, the logPoct in series [2] is reported as 3.29.

For `COC1=CC(=O)C[C@@H](C)[C@]12Oc1c(Cl)c(OC)cc(OC)c1C2=O` [Griseofulvin], in series [1], the chromatographic logP worked out at 2.59, the “log k′2 (capacity factor extrapolated to 0% methanol)” value is reported as 2.21 and the Residual is −0.41. Further, the logPoct in series [2] was 2.18.

Turning to `Oc1ncnc2[nH]ncc12` [Allopurinol], in series [1], the “log k′2 (capacity factor extrapolated to 0% methanol)” value is reported as −0.89 and the Residual came out at 0.30. Besides, the ElogPoct in series [1] (pH 7.4) is −0.85. For the same molecule, the logPoct in series [2] was −0.55.

The molecule `O=[N+]([O-])c1ccc(/C=N/O)o1` [Nifuroxime] yielded a logPoct in series [3] of 1.28. Also, in series [1], the chromatographic logP was 1.36, the “log k′2 (capacity factor extrapolated to 0% methanol)” value was 1.11 and the Residual is recorded as −0.08.

On to `CN1C(=O)C(O)N=C(c2ccccc2Cl)c2cc(Cl)ccc21` (centres unmarked) [Lormetazepam], for which, in series [1], the chromatographic logP was determined as 2.8, the “log k′2 (capacity factor extrapolated to 0% methanol)” value is on record as 2.40 and the Residual is −0.08. Further, the logPoct in series [2] is on record as 2.72.

`C[C@@H]1C[C@H]2[C@@H]3CCC4=CC(=O)C=C[C@]4(C)[C@@]3(F)[C@@H](O)C[C@]2(C)[C@@]1(O)C(=O)CO` [Dexamethasone] had a chromatographic logP in series [1] of 2.39. The logPoct in series [2] is 1.83.

Regarding `Oc1cc(Cl)cc(Cl)c1` [3,5-Dichlorophenol], in series [1], the chromatographic logP is 3.91, the “log k′2 (capacity factor extrapolated to 0% methanol)” value is on record as 3.40 and the Residual is listed as −0.23. For the same molecule, the logPoct in series [2] is given as 3.68.

As to `Cc1cccc(N(C)C(=S)Oc2ccc3ccccc3c2)c1` [Tolnaftate], in series [1], the chromatographic logP was determined as 5.18, the “log k′2 (capacity factor extrapolated to 0% methanol)” value was 4.55 and the Residual was 0.22.

Turning to `c1ccc(-c2ccc(C(c3ccccc3)n3ccnc3)cc2)cc1` (centres unmarked) [Bifonazole], in series [1], the chromatographic logP was determined as 4.98, the “log k′2 (capacity factor extrapolated to 0% methanol)” value is 4.37 and the Residual is −0.21. Further, the logPoct in series [2] is recorded as 4.77.

As to `Cc1ncc([N+](=O)[O-])n1CCO` [Metronidazole], in series [1], the “log k′2 (capacity factor extrapolated to 0% methanol)” value is −0.32 and the Residual is given as 0.20. Moreover, the ElogPoct in series [1] (pH 7.4) is listed as −0.22. The logPoct in series [2] was −0.02.

Regarding `CC(=O)CCCCn1c(=O)c2c(ncn2C)n(C)c1=O` [Pentoxifylline], in series [1], the chromatographic logP worked out at 0.31, the “log k′2 (capacity factor extrapolated to 0% methanol)” value is on record as 0.16 and the Residual is reported as −0.02. Moreover, in series [2], the logPoct is 0.29.

In the case of `c1ccc2ncccc2c1` [Quinoline], in series [1], the chromatographic logP worked out at 1.86, the “log k′2 (capacity factor extrapolated to 0% methanol)” value is recorded as 1.56 and the Residual was determined as 0.17.

With `O=C1Nc2ccc(Cl)cc2C(c2ccccc2Cl)=NC1O` (centres unmarked) [Lorazepam], in series [1], the chromatographic logP is 2.75, the “log k′2 (capacity factor extrapolated to 0% methanol)” value is given as 2.36 and the Residual is on record as −0.24.

For `CS(=O)(=O)c1ccc([C@@H](O)[C@@H](CO)NC(=O)C(Cl)Cl)cc1` [Thiamphenicol], in series [1], the “log k′2 (capacity factor extrapolated to 0% methanol)” value is −0.24 and the Residual is −0.14. The same molecule yielded an ElogPoct in series [1] (pH 7.4) of −0.13. In series [2], the logPoct was −0.27.

Consider `NC(=O)N/N=C/c1ccc([N+](=O)[O-])o1` [Nitrofurazone], for which, in series [1], the chromatographic logP is 0.24, the “log k′2 (capacity factor extrapolated to 0% methanol)” value is recorded as 0.10 and the Residual was −0.01. Also, in series [2], the logPoct was 0.23.

Take `C[C@]12C=CC(=O)C=C1CC[C@@H]1[C@@H]2[C@@H](O)C[C@@]2(C)[C@H]1CC[C@]2(O)C(=O)CO` [Prednisolone]: in series [1], the chromatographic logP is 1.84, the “log k′2 (capacity factor extrapolated to 0% methanol)” value is 1.54 and the Residual is listed as −0.24.

`NC(=O)N1c2ccccc2C=Cc2ccccc21` [Carbamazepine]: in series [1], the chromatographic logP amounted to 2.02, the “log k′2 (capacity factor extrapolated to 0% methanol)” value was 1.70 and the Residual is recorded as 0.17. Besides, the logPoct in series [2] is 2.19.

`CC(=O)OCC(=O)[C@@]1(O)CC[C@H]2[C@@H]3CCC4=CC(=O)CC[C@]4(C)[C@H]3[C@@H](O)C[C@@]21C` [Hydrocortisone-21-acetate]: in series [1], the “log k′2 (capacity factor extrapolated to 0% methanol)” value is reported as 1.93 and the Residual is recorded as −0.08. Also, the ElogPoct in series [1] (setting [4]) amounted to 2.27.

For the molecule `CSc1ncnc2c1ncn2[C@@H]1O[C@H](CO)[C@@H](O)[C@H]1O` [Methylthiolnosine], the logPoct in series [3] is reported as 0.09. Further, in series [1], the “log k′2 (capacity factor extrapolated to 0% methanol)” value is given as 0.19 and the Residual is on record as −0.25. Moreover, in series [1] (setting [4]), the ElogPoct was determined as 0.34.

`CC(=O)Nc1ccc(O)cc1` [Acetaminophen]: in series [1], the chromatographic logP amounted to 0.11, the “log k′2 (capacity factor extrapolated to 0% methanol)” value was −0.02 and the Residual is 0.40.

Consider `C[C@]12C=CC(=O)C=C1CC[C@@H]1[C@@H]2C(=O)C[C@@]2(C)[C@H]1CC[C@]2(O)C(=O)CO` [Prednisone], for which, in series [1], the “log k′2 (capacity factor extrapolated to 0% methanol)” value is 1.21 and the Residual is −0.02.

`O=C1CN=C(c2ccccn2)c2cc(Br)ccc2N1` [Bromazepam]: in series [1], the chromatographic logP stood at 1.39, the “log k′2 (capacity factor extrapolated to 0% methanol)” value is reported as 1.13 and the Residual is 0.26. Further, the logPoct in series [2] was 1.65.
